# Data reported in patent publication US12180221B2, “Compounds and uses thereof” (JANSSEN PHARMACEUTICA NV, priority 2018, dated 2024).
# Columns and labels:
# human SCD1 = target: T1, human SCD1 (Homo sapiens, UniProt O00767); assay: Yeast growth assay, strain expressing human SCD1 as the sole desaturase (reduced growth as surrogate for SCD inhibition); type: cell-based; details: growth (OD600) after 40 h at 30° C.
# T1 construct: expressed in transfected cells; host or cells: yeast strain with the OLE1 gene deleted, carrying a plasmid (grown in SD-Ura)
# T1 sequence (O00767 1-359): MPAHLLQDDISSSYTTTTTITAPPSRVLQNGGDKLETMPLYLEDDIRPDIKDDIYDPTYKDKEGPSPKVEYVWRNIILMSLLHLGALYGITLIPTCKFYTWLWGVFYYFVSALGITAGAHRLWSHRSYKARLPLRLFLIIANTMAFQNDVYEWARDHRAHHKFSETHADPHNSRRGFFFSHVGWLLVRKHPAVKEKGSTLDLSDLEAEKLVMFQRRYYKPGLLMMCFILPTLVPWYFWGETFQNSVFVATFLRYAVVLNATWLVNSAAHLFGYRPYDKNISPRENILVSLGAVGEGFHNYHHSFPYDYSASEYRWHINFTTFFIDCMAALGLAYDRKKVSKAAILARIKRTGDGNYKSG
# human SCD5 = target: T2, human SCD5 (Homo sapiens, UniProt Q86SK9); assay: Yeast growth assay, strain expressing human SCD5 as the sole desaturase (reduced growth as surrogate for SCD inhibition); type: cell-based; details: growth (OD600) after 40 h at 30° C.
# T2 construct: expressed in transfected cells; host or cells: yeast strain with the OLE1 gene deleted, carrying a plasmid (grown in SD-Ura)
# T2 sequence (Q86SK9 1-330): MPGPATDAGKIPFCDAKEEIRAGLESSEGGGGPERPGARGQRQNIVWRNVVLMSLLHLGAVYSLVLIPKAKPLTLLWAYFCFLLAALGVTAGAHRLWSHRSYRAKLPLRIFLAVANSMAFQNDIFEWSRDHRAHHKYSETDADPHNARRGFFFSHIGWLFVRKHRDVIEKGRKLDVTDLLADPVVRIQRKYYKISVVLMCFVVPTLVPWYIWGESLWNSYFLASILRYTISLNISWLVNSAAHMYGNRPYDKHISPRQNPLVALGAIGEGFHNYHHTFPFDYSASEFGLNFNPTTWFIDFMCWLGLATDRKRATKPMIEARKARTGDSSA
IC50 (human SCD1) [µM],IC50 (human SCD5) [µM],SMILES
> 45,–,CN1N=C(c2nc3cc(Cc4cccc(Cl)c4)cnc3[nH]2)CCC1=O [Compound 255]
> 45,> 45,"CN1N=C(C(=O)Nc2ncc(Cc3cccc(F)c3)s2)CCC1=O [Compound 221, N-(5-(3-fluorobenzyl)thiazol-2-yl)-1-methyl-6-oxo-1,4,5,6-tetrahydropyridazine-3-carboxamide]"
–,0.17,Cn1cc(C(=O)Nc2ccc(COc3cccc(Cl)c3)cn2)ccc1=O [Compound 263]
> 45,17.7,CC1(C)CN(C(=O)c2cccc(Cc3ccc(F)cc3)n2)CCO1 [Compound 339]
3.1,0.36,Cn1cc(C(=O)Nc2ccc(Cc3ccc(F)c(F)c3)cn2)ncc1=O [Compound 673]
> 45,> 45,O=C(Nc1ccc(Cc2cccc(F)c2)cn1)c1cnc2[nH]c(=O)oc2c1 [Compound 463]
1.82,0.03,Cc1ccc(Cc2ccc(C(=O)Nc3ccc(=O)n(C)n3)nc2)cc1C [Compound 312]
> 45,> 45,O=C(Nc1ccc(Cc2cccc(F)c2)cn1)c1cc[nH]c(=O)n1 [Compound 425]
